From patent US7579468B2, “Methods of modulating neurotrophin-mediated activity” (PainCeptor Pharma Corporation, priority 2005, dated 2009) come the findings set out here.

SMILES strings stand for the structures. “Also recorded” adds a separate entry of the source.

Assay [1] has as its system NGF-induced Erk 1/2 phosphorylation in PC12 cells. Briefly: Erk phosphorylation in NGF-stimulated PC12 cells (Western blot). It is filed as cell-based, rat. Particulars: 5 ng/mL NGF. The protocol: This assay is useful for establishing that the compounds of the invention are functional NGF antagonists, not receptor agonists (an agonist could conceivably block NGF binding but actually activate the receptor). Erk 1/2 is a kinase activated down stream of TrkA and is a well studied member of the NGF-induced signal transduction cascade.
PC12 cells expressing TrkA and p75 were acutely exposed to 5 ng/mL NGF (15 min; 37° C.; 5% CO2) that was pre-incubated (30 min; room temperature) with or without the compounds. Cells were lysed in Laemmli sample buffer (for SDS-PAGE) or a lysis buffer containing Triton X-100 (for ELISA). Following SDS-PAGE, proteins were electroblotted onto nitrocellulose and immunoprobed for phosphorylated Erk 1 and 2. Blocking and primary antibody incubations of immunoblots were performed in Tris-buffered saline-Tween (10 mM Tris, pH 8.0, 150 mM NaCl, and 0.2% Tween 20) supplemented with 5% (w/v) bovine serum albumin (BSA); secondary antibody incubations were performed in 5% (w/v) dried skim milk powder. Immunoreactive bands were detected by chemiluminescence.
A general note: A western blot detects proteins with antibodies after separation by electrophoresis.

For a further assay, the system named is Male Sprague-Dawley rats. In words: Formalin Model - model of acute tonic pain. It is filed as in vivo, rat. Particulars: 6.5, 12.5 and 25 mg/kg i.p., Phase II. The method, then:
Male Sprague-Dawley rats were given a subcutaneous injection of 50 μl of 2.5% formalin into the plantar surface of one hindpaw using a 27 gauge syringe needle, and nociceptive responses were measured for the next 60 min. Compound or vehicle was administered (i.p. or s.c.) 15-45 minutes prior to the formalin injection. A nociceptive score was determined for each 5 min block by measuring the amount of time spent in each of four behavioral categories: 0, the injected hindpaw is indistinguishable from that of the contralateral paw; 1, the injected paw has little or no weight placed on it; 2, the injected paw is elevated and is not in contact with any surface; 3, the injected paw is licked, bitten, or shaken. A weighted nociceptive score, ranging from 0 to 3 was calculated by multiplying the time spent in each category by the category weight, summing these products, and dividing by the total time for each 5 min block of time (Coderre et al., Pain 1993; 54: 43). On the basis of the resulting response patterns, 2 phases of nociceptive behaviour were identified and scored: first phase (P1; 0-5 min) and second phase (P2; 11-40 min).
Statistical analysis was performed using Prism™ 4.01 software package (GraphPad, San Diego, Calif., USA). […]

A further assay deals with A875: p75 alone. In words: 125I-NGF binding displacement in A875 cells. Particulars: A875 cells expressing p75; individual experiment. Set-up: species or system human. The protocol:
All cells were incubated at 37° C. in 5% CO2. PC12 cells were maintained in RPMI-1640 medium supplemented with 10% fetal bovine serum (FBS). A875 human melanoma cells were maintained in DMEM with 10% FBS. HEK 293 cells were stably transfected with human TrkA plasmid (see below) and maintained in DMEM with 10% FBS and G418 (600 μg/mL) for selection.
NGF binding was evaluated using methods familiar to those who are skilled in the art. Briefly, cells expressing one or both NGF receptors (PC12: TrkA+p75; A875: p75 alone; HEK_TrkA: TrkA alone) were harvested by replacing the medium with calcium-magnesium free balanced salt (Grey's) solution and incubating at 37° C. for 15 min. For NGF binding, cells were resuspended at a concentration of 2×10^6 cells/mL in HEPES-Krebs-Ringer (HKR) buffer (10 mM HEPES; 125 mM NaCl; 4.8 mM KCl; 1.3 mM CaCl2; 1.2 mM MgSO4; 1.2 mM KH2PO4; 1 mg/ml BSA; 1 mg/ml glucose; pH 7.4) and exposed to ^125I-NGF (˜0.11 nM) in the presence or absence of varying concentrations of the compound. Non-specific binding was determined for reference by incubating ^125I-NGF with an excess of non-radioactive NGF in the absence of compound. Following a two-hour incubation period at 4° C., ^125I-NGF bound to the cells was quantified in a gamma radiation counter following separation from unbound NGF by filtration or centrifugation through glycerol (10% in HKR). Inhibition of binding was calculated as a percent of the specific binding (calculated as the differential between ^125I-NGF binding in the absence and presence of an excess of non-radioactive NGF without compound). Dose-response inhibition curves were typically generated with seven concentrations of a given compound, with three replicates for each concentration. For most compounds, multiple dose-response curves were generated.

For a further assay, the system named is PC12 cells. Briefly: NGF-induced neurite outgrowth in PC12 cells. The assay is classed as cell-based, rat. Conditions: 4 days of exposure to NGF. The method, then:
This assay was run as a further functional marker of NGF antagonism and takes advantage of the differentiation of PC12 cells (neurite outgrowth) induced by NGF. Cultures of PC12 cells were grown on Terasaki plates pre-coated with poly-D-lysine. Cells were exposed to NGF (1-50 (preferably 5) ng/ml) to induce neurite outgrowth as described elsewhere [L A Greene & A S Tischler, Establishment of a noradrenergic clonal line of rat adrenal pheochromocytoma cells which respond to nerve growth factor, Proc Natl Acad Sci USA. 1976 July; 73(7): 2424-2428]. In addition to NGF, cells were exposed to varying concentration of the compounds or vehicle. Following 4 days of exposure to NGF in the presence or absence of compound, neurite outgrowth was quantified. A neurite was scored if its caliber from origin to terminal was approximately the same and the length was equal to or greater than 1.5 the cell body diameter. The number of neurite bearing cells per total number of viable cells was calculated for each condition; the number of cells with neurites in the presence of NGF (without compound exposure) was considered to represent maximal (100%) outgrowth, to which the inhibitory effect of compounds of the invention on NGF-induced outgrowth was compared.

The test system of the next assay is Mice. Briefly: Writhing Test (acetic acid abdominal contraction test). The assay is classed as in vivo, mouse. The method, then:
The acetic acid abdominal contraction test (Martinez et al., Pain 1999; 81: 179) was used to determine the efficacy of different compounds in a model of acute visceral chemical nociception. […] Compound or vehicle was administered (i.p. or s.c.) 15-45 minutes prior to the acetic acid injection. Each episode of writhing is characterized by a lengthwise stretching of the torso with a concomitant arching of the back.
Statistical analysis was performed using Prism™ 4.01 software package (GraphPad, San Diego, Calif., USA). The difference in response levels between treatment groups and control vehicle group was analyzed using an ANOVA followed by Bonferroni's method for post-hoc pair-wise comparisons. A p value <0.05 was considered to be significant.
In general terms: An intraperitoneal irritant provokes the stretching counted in writhing tests.

Regarding `CC(=O)Nc1cc2c3c(cc(NC(C)=O)cc3c1)C(=O)N(CCCC(=O)O)C2=O` [Compound 11, 4-(5,8-Bis-acetylamino-1,3-dioxo-1H,3H-benzo[de]isoquinolin-2-yl)-butyric acid], in assay [1], the “Inhibition of NGF-induced Erk 1/2 phosphorylation” value is recorded as “inhibits NGF-induced Erk 1/2 phosphorylation in PC12 cells”. Besides, the “Antinociceptive effect in the Formalin Test” value in the assay with Male Sprague-Dawley rats is on record as “significant dose-dependent antinociceptive effect; also recorded: significant antinociceptive effects”. Further, the “NGF binding displacement, dose-response curve” value in the assay on A875: p75 alone is given as “effectively blocks NGF binding to cells expressing p75”. The “Inhibition of NGF-induced neurite outgrowth” value in the assay on PC12 cells was “effectively inhibit neurite outgrowth induced by NGF”. Besides, the “Number of abdominal contractions (writhing)” value in the assay on Mice (15 mg/kg i.p., 30 minutes following acetic acid, vehicle 54±6) was determined as 28±4. Moreover, the “Antinociceptive effect in the Writhing Test” value in the assay on Mice (Compound 63 100 mg/kg i.p., Compound 11 15 mg/kg i.p., 10-20 minutes before acetic acid) is on record as “significant antinociceptive effects”.
